Experimental data taken from patent US12018023B2 (NERVIANO MEDICAL SCIENCES S.R.L., priority 2018, dated 2024).

How the values were obtained:
[1] = biological target: T1, IDH1^R132H homodimer enzyme (Homo sapiens, UniProt O75874, R132H); test: NADPH depletion assay, IDH1 R132H; format: biochemical
T1 construct: purchased not specified
Summary of the method: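 IDH1 R132H enzyme (8 nM as diluted) in Tris-HCl pH 7.6 with 10 mM MgCl2, 0.001% Triton X-100 and 4 mM β-mercaptoethanol is preincubated 15 min at RT with compound. Substrate mix (12 uM NADPH, 3.4 mM α-ketoglutarate) is added for 60 min; remaining NAD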

[2] = biological target: T2, IDH1^R132C (Homo sapiens, UniProt O75874, R132C); test: NADPH depletion assay, IDH1 R132C; format: biochemical
T2 construct: purchased not specified
T2 sequence (O75874 whole entry R132C): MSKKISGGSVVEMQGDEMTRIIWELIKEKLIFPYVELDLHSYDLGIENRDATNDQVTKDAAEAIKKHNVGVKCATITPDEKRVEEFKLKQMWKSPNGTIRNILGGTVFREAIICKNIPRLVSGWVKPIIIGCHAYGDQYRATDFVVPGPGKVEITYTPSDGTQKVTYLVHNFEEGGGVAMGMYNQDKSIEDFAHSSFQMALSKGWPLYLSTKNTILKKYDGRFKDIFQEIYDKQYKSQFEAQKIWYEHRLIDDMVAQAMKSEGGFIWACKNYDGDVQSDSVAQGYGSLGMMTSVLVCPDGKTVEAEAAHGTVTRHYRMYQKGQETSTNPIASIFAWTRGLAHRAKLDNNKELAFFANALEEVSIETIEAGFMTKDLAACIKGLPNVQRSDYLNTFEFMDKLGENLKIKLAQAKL
Summary of the method: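 Fluorescence readout (Ex544/Em590) of NADPH left after diaphorase/resazurin addition. Alpha-ketoglutarate 0.14 mM final, enzyme 2 nM final; compound preincubation 15 min, then 60 min reaction, both at room temperature, pH 7.6 Tris buffer.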

[3] = biological target: T3, IDH2^R172K (Homo sapiens, UniProt P48735, R172K); test: NADPH depletion assay, IDH2 R172K; format: biochemical
T3 construct: purchased not specified
T3 sequence (P48735 40-452 R172K): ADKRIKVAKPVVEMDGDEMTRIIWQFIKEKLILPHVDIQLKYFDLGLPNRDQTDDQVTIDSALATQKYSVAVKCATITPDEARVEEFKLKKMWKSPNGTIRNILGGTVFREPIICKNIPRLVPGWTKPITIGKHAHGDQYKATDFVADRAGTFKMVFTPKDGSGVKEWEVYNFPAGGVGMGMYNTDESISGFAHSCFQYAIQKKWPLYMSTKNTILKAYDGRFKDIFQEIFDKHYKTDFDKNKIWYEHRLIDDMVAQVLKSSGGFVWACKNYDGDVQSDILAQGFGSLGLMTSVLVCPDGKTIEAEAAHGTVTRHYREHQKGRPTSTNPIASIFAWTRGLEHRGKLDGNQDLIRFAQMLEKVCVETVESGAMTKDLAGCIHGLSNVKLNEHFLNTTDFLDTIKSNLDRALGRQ
Summary of the method: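 This NADPH depletion assay measures NADPH left after conversion of alpha-ketoglutarate (0.55 mM final) by 16 nM IDH2 R172K over 60 min at room temperature, after a 15 min compound preincubation in pH 7.6 Tris buffer. Substrate mix held 12 μM NADPH. Diaphorase/resazurin gave the fluorescence read-out at 544/590 nm.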

[4] = system: U87MG_IDH1R132H; test: Cellular 2-HG production assay, U87-MG-IDH1 R132H; format: cell-based; settings: inhibition of 2HG production, 72 hr incubation, LC-MS/MS
Description: Cell lines HT-1080 (commercially available) and U87-MG-IDH1^R132H (obtained in analoy to the procedure reported in J. Mol. Neurosci 2013, 50, 165-71) are maintained in E-MEM 10% FCS and incubated at 37° C. in a humidified 5% CO2 atmosphere. Stably transfected U87-MG cell lines are also supplemented with 500 μg/mL G418.
Cells are seeded into 96 well black flat bottom plates at a density of 500 cells/well in 100 μL complete medium. After 24 hr the medium is replaced with 200 uL of fresh medium and compounds (dissolved into DMSO) are administrated to the cells using D300E Digital Dispenser (Tecan).
After 72 hr of incubation 100 uL from each well are collected and used for 2HG (R(−)-2-hydroxyglutarate) quantification.
Levels of 2-HG in cell culture media are determined by LC-MS/MS. Cell supernatants (100 μL/well) are treated with 1 M aqueous trichloroacetic acid containing 130 μM of the internal standard 2-HG-d3 (20 μL/well) in a 96-well plate.
The plates are sealed, mildly vortexed for 60 minutes, centrifuged at 4,000 RPM for 15 minutes, placed in a refrigerated autosampler taking care not to shake them, and aliquots of the upper part of the samples are directly injected in the chromatographic system. Calibration standards are obtained by ten fold dilution of aqueous 2-HG stock solutions with blank cell culture medium and denatured exactly in the same way as described above for samples. Samples and standards are assayed for 2-HG by reversed phase chromatography on a C18 column eluted with aqueous 0.15% formic acid and briefly washed with 90% methanol at the end of the run. 2-HG is determined by negative ion electrospray ionization with the internal standard method on a triple quadrupole mass spectrometer monitoring the MRM transitions 147>129 (2-HG) and 150>132 (2-HG-d3). 2-HG inhibition was calculated by comparing treated versus control data using Assay Explore (Symyx) software, with IC50 determined using a sigmoidal fitting algorithm.

[5] = system: HT-1080 (IDH1^R132C); test: Cellular 2-HG production assay, HT-1080; format: cell-based; settings: Homo sapiens, HT-1080, 72 h, inhibition of 2HG production, 72 hr incubation, LC-MS/MS; read-out: HT1080 2-HG IC50
Summary of the method: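 Cells in E-MEM/10% FCS (G418 500 μg/mL for the transfected U87-MG line) at 500 per well got compound 24 h after seeding and were incubated 72 h at 37 °C. Medium 2-HG was measured by LC-MS/MS with 2-HG-d3 internal standard; IC50 came from sigmoidal fitting versus controls.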

T1 sequence (O75874 whole entry R132H): as the sequence (O75874 whole entry R132C) above, with C132H counted along it

Row | SMILES | IC50 [1] | IC50 [2] | IC50 [3] | IC50 [4] | IC50 [5]
1 | C[C@H](Nc1ncc2ccc(=O)n(CC(C)(C)C)c2n1)c1ccc(Oc2ccccc2)cc1 [cpd 49, 8-(2,2-dimethylpropyl)-2-{[(1S)-1-(4-phenoxyphenyl)ethyl]amino}pyrido[2,3-d]pyrimidin-7(8H)-one] | 118 nM | 67 nM | 4360 nM | 507 nM | 307 nM
2 | C[C@H](Nc1ncc2ccc(=O)n([C@@H](C)C3CCCCC3)c2n1)c1ccc(CN2CCCC(F)(F)C2)cc1 [cpd 66, 8-[(1S)-1-cyclohexylethyl]-2-{[(1S)-1-{4-[(3,3-difluoropiperidin-1-yl)methyl]phenyl}ethyl]amino} pyrido[2,3-d]pyrimidin-7(8H)-one] | 161 nM | 94 nM | 4540 nM | 691 nM | 353 nM
3 | C[C@H](Nc1ncc2ccc(=O)n(CC(C)(C)C)c2n1)c1ccc(CN2CCOCC2)cc1 [cpd 110, 8-(2,2-dimethylpropyl)-2-({(1S)-1-[4-(morpholin-4-ylmethyl)phenyl]ethyl}amino)pyrido[2,3-d]pyrimidin-7(8H)-one] | 238 nM | 104 nM | – | 2610 nM | 590 nM
4 | C[C@H](Nc1ncc2ccc(=O)n(CC3CCCCC3)c2n1)c1ccc(CN2CCC(F)(F)CC2)cc1 [cpd 113, 8-(cyclohexylmethyl)-2-{[(1S)-1-{4-[(4,4-difluoropiperidin-1-yl)methyl]phenyl}ethyl]amino}pyrido[2,3-d]pyrimidin-7(8H)-one] | 367 nM | 282 nM | 5510 nM | 2540 nM | –
5 | C[C@H](Nc1ncc2ccc(=O)n(CC(C)(C)C(F)(F)F)c2n1)c1ccc(CN2CCC(F)(F)CC2)cc1 [cpd 116, 2-{[(1S)-1-{4-[(4,4-difluoropiperidin-1-yl)methyl]phenyl}ethyl]amino}-8-(3,3,3-trifluoro-2,2-dimethylpropyl) pyrido[2,3-d]pyrimidin-7(8H)-one] | 176 nM | 101 nM | 5020 nM | 612 nM | 311 nM
6 | C[C@H](Nc1ncc2ccc(=O)n(CC(C)(C)C#N)c2n1)c1ccc2ccccc2c1 [cpd 129, 2,2-dimethyl-3-[2-{[(1S)-1-(naphthalen-2-yl)ethyl]amino}-7-oxopyrido[2,3-d]pyrimidin-8(7H)-yl]propanenitrile] | 197 nM | 98 nM | 6680 nM | 3840 nM | –
7 | C[C@H](Nc1ncc2ccc(=O)n(CC(C)(C)C)c2n1)c1ccc(-c2cnn(C)c2)cc1 [cpd 130, 8-(2,2-dimethylpropyl)-2-({(1S)-1-[4-(1-methyl-1H-pyrazol-4-yl)phenyl]ethyl}amino)pyrido[2,3-d]pyrimidin-7 (8H)-one] | 180 nM | 93 nM | 5030 nM | 4840 nM | –
8 | C[C@H](Nc1ncc2ccc(=O)n(CC(C)(C)C)c2n1)c1ccc(-c2ccnc(F)c2)cc1 [cpd 132, 8-(2,2-dimethylpropyl)-2-({(1S)-1-[4-(2-fluoropyridin-4-yl)phenyl]ethyl}amino)pyrido[2,3-d]pyrimidin-7(8H)-one] | 194 nM | 124 nM | 6110 nM | 3220 nM | –
9 | CC(C)n1c(=O)ccc2cnc(N[C@@H](C)c3ccc(CN4CCCC(F)(F)C4)cc3)nc21 [cpd 170, 2-{[(1S)-1-{4-[(3,3-difluoropiperidin-1-yl)methyl]phenyl}ethyl]amino}-8-(propan-2-yl)pyrido[2,3-d]pyrimidin-7(8H)-one] | 167 nM | 90 nM | 3110 nM | 637 nM | 442 nM

More lines, in order of falling IC50 [1], values ahead:

Row | IC50 [1] | IC50 [2] | IC50 [3] | IC50 [4] | IC50 [5] | SMILES
10 | 334 nM | 218 nM | 5680 nM | 1810 nM | – | C[C@H](Nc1ncc2ccc(=O)n(CC3CCC3)c2n1)c1ccc(CN2CCC(F)(F)CC2)cc1 [cpd 109, 8-(cyclobutylmethyl)-2-{[(1S)-1-{4-[(4,4-difluoropiperidin-1-yl)methyl]phenyl}ethyl]amino}pyrido[2,3-d]pyrimidin-7(8H)-one]
11 | 152 nM | 61 nM | 6110 nM | 874 nM | – | C[C@H](Nc1ncc2ccc(=O)n(CC(C)(C)C)c2n1)c1ccc(-c2ccccc2C#N)cc1 [cpd 134, 4′-[(1S)-1-{[8-(2,2-dimethylpropyl)-7-oxo-7,8-dihydropyrido[2,3-d]pyrimidin-2-yl]amino}ethyl]biphenyl-2-carbonitrile]
12 | 112 nM | 75 nM | – | 501 nM | 505 nM | C[C@H](Nc1ncc2ccc(=O)n(CC(C)(C)C)c2n1)c1ccc(C(=O)NC2CCC(F)(F)CC2)c(F)c1 [cpd 89, N-(4,4-difluorocyclohexyl)-4-[(1S)-1-{[8-(2,2-dimethylpropyl)-7-oxo-7,8-dihydropyrido[2,3-d]pyrimidin-2-yl]amino}ethyl]-2-fluorobenzamide]
13 | 82 nM | 44 nM | 5700 nM | 462 nM | 169 nM | CC[C@H](C)n1c(=O)ccc2cnc(N[C@@H](C)c3ccc(CN4CCCC(F)(F)C4)cc3)nc21 [cpd 62, 8-[(2S)-butan-2-yl]-2-{[(1S)-1-{4-[(3,3-difluoropiperidin-1-yl)methyl]phenyl}ethyl]amino}pyrido[2,3-d]pyrimidin-7(8H)-one]
14 | 78 nM | 29 nM | – | 646 nM | 315 nM | CC(C)[C@H](C)n1c(=O)ccc2cnc(N[C@@H](C)c3ccc(CN4CCOCC4)c(F)c3)nc21 [cpd 68, 2-({(1S)-1-[3-fluoro-4-(morpholin-4-ylmethyl)phenyl]ethyl}amino)-8-[(2S)-3-methylbutan-2-yl]pyrido[2,3-d]pyrimidin-7(8H)-one]
15 | 20 nM | 11 nM | – | 179 nM | 82 nM | CC(C)[C@H](C)n1c(=O)ccc2cnc(N[C@@H](C)c3ccc(CN4CCCC(F)(F)C4)cc3)nc21 [cpd 65, 2-{[(1S)-1-{4-[(3,3-difluoropiperidin-1-yl)methyl]phenyl}ethyl]amino}-8-[(2S)-3-methylbutan-2-yl]pyrido[2,3-d]pyrimidin-7(8H)-one]
